From PubChem BioAssay (NCI)
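Five compound concentrations were applied to cells in 96-well plates for 48 hours; endpoints were derived by simple linear interpolation of the resulting dose-response curve. Here, GI50 denotes the concentration required for 50% inhibition of growth. TGI: total growth inhibition.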

Each compound was assayed on OVCAR-4 ovarian (assay: NCI-60 cell line screen, 48 h).
Work on CCOC(=O)C1=CN(C)C=C(C(=O)OCC)C1c1cc(Br)c(OCC)c(OC)c1 yielded a GI50 of 12.5 µM and a TGI of over 100 µM.
Work on N#Cc1c(N)nc(N2CCOCC2)c(C#N)c1-c1ccncc1 yielded a GI50 of over 100 µM and a TGI of over 100 µM.

Each compound was assayed on 786-0 renal (assay: NCI-60 cell line screen, 48 h).
For CSC1=Nc2c(c(C)c(C)n2COC(CO)CO)C2=NC(=O)C(C)N12 (centres undefined), the GI50 was over 100 µM and the TGI was over 100 µM.
With COc1cccc(CCNC(=O)Cc2ccccc2CCO)c1 the TGI was over 100 µM.
For CCOC(=O)C1=CN(C)C=C(C(=O)OCC)C1c1cc(Br)c(OCC)c(OC)c1, the GI50 was over 100 µM and the TGI was over 100 µM.
With N#Cc1c(N)nc(N2CCOCC2)c(C#N)c1-c1ccncc1 the GI50 was 95.7 µM and the TGI was over 100 µM.

What follows are compounds tested on HCT-116 colon (assay: NCI-60 cell line screen, 48 h).
CSC1=Nc2c(c(C)c(C)n2COC(CO)CO)C2=NC(=O)C(C)N12 (centres undefined) gave a GI50 of over 100 µM and a TGI of over 100 µM.
In the case of COc1cccc(CCNC(=O)Cc2ccccc2CCO)c1, the TGI is reported as over 100 µM.
CCOC(=O)C1=CN(C)C=C(C(=O)OCC)C1c1cc(Br)c(OCC)c(OC)c1 gave a GI50 of 25.9 µM and a TGI of over 100 µM.
N#Cc1c(N)nc(N2CCOCC2)c(C#N)c1-c1ccncc1 was tested, and the GI50 was over 100 µM and the TGI was over 100 µM.

Each compound was assayed on MOLT-4 leukemia (assay: NCI-60 cell line screen, 48 h).
In the case of CSC1=Nc2c(c(C)c(C)n2COC(CO)CO)C2=NC(=O)C(C)N12 (centres undefined), the GI50 is reported as over 100 µM and the TGI is reported as over 100 µM.
With COc1cccc(CCNC(=O)Cc2ccccc2CCO)c1 the TGI was over 100 µM.
CCOC(=O)C1=CN(C)C=C(C(=O)OCC)C1c1cc(Br)c(OCC)c(OC)c1 gave a GI50 of over 100 µM and a TGI of over 100 µM.
With N#Cc1c(N)nc(N2CCOCC2)c(C#N)c1-c1ccncc1 the GI50 was over 100 µM and the TGI was over 100 µM.

Each compound was assayed on T-47D breast (assay: NCI-60 cell line screen, 48 h).
For CSC1=Nc2c(c(C)c(C)n2COC(CO)CO)C2=NC(=O)C(C)N12 (centres undefined), the GI50 was over 100 µM and the TGI was over 100 µM.
COc1cccc(CCNC(=O)Cc2ccccc2CCO)c1 gave a TGI of over 100 µM.
CCOC(=O)C1=CN(C)C=C(C(=O)OCC)C1c1cc(Br)c(OCC)c(OC)c1 was tested, and the GI50 was 23.5 µM and the TGI was over 100 µM.
In the case of N#Cc1c(N)nc(N2CCOCC2)c(C#N)c1-c1ccncc1, the GI50 is reported as 12.6 µM and the TGI is reported as 51.7 µM.

These compounds were tested on TK-10 renal (assay: NCI-60 cell line screen, 48 h).
With CSC1=Nc2c(c(C)c(C)n2COC(CO)CO)C2=NC(=O)C(C)N12 (centres undefined) the GI50 was over 100 µM and the TGI was over 100 µM.
In the case of COc1cccc(CCNC(=O)Cc2ccccc2CCO)c1, the TGI is reported as over 100 µM.
Compound CCOC(=O)C1=CN(C)C=C(C(=O)OCC)C1c1cc(Br)c(OCC)c(OC)c1 has a GI50 of over 100 µM and a TGI of over 100 µM.
Compound N#Cc1c(N)nc(N2CCOCC2)c(C#N)c1-c1ccncc1 has a GI50 of 72.4 µM and a TGI of over 100 µM.

What follows are compounds tested on SK-OV-3 ovarian (assay: NCI-60 cell line screen, 48 h).
Work on CSC1=Nc2c(c(C)c(C)n2COC(CO)CO)C2=NC(=O)C(C)N12 (centres undefined) yielded a GI50 of over 100 µM and a TGI of over 100 µM.
Work on COc1cccc(CCNC(=O)Cc2ccccc2CCO)c1 yielded a TGI of over 100 µM.
CCOC(=O)C1=CN(C)C=C(C(=O)OCC)C1c1cc(Br)c(OCC)c(OC)c1 was tested, and the GI50 was over 100 µM and the TGI was over 100 µM.
Compound N#Cc1c(N)nc(N2CCOCC2)c(C#N)c1-c1ccncc1 has a GI50 of 37 µM and a TGI of over 100 µM.

Each compound was assayed on RPMI-8226 leukemia (assay: NCI-60 cell line screen, 48 h).
CSC1=Nc2c(c(C)c(C)n2COC(CO)CO)C2=NC(=O)C(C)N12 (centres undefined) gave a GI50 of over 100 µM and a TGI of over 100 µM.
CCOC(=O)C1=CN(C)C=C(C(=O)OCC)C1c1cc(Br)c(OCC)c(OC)c1 gave a GI50 of 25.8 µM and a TGI of over 100 µM.
Compound N#Cc1c(N)nc(N2CCOCC2)c(C#N)c1-c1ccncc1 has a GI50 of over 100 µM and a TGI of over 100 µM.

Each compound was assayed on MALME-3M melanoma (assay: NCI-60 cell line screen, 48 h).
In the case of CSC1=Nc2c(c(C)c(C)n2COC(CO)CO)C2=NC(=O)C(C)N12 (centres undefined), the GI50 is reported as over 100 µM and the TGI is reported as over 100 µM.
For CCOC(=O)C1=CN(C)C=C(C(=O)OCC)C1c1cc(Br)c(OCC)c(OC)c1, the GI50 was over 100 µM and the TGI was over 100 µM.
N#Cc1c(N)nc(N2CCOCC2)c(C#N)c1-c1ccncc1 was tested, and the GI50 was 9.04 µM and the TGI was 98.1 µM.

Each compound was assayed on UO-31 renal (assay: NCI-60 cell line screen, 48 h).
With CSC1=Nc2c(c(C)c(C)n2COC(CO)CO)C2=NC(=O)C(C)N12 (centres undefined) the GI50 was over 100 µM and the TGI was over 100 µM.
In the case of COc1cccc(CCNC(=O)Cc2ccccc2CCO)c1, the TGI is reported as over 100 µM.
In the case of CCOC(=O)C1=CN(C)C=C(C(=O)OCC)C1c1cc(Br)c(OCC)c(OC)c1, the GI50 is reported as 39.9 µM and the TGI is reported as over 100 µM.
N#Cc1c(N)nc(N2CCOCC2)c(C#N)c1-c1ccncc1 was tested, and the GI50 was 31.3 µM and the TGI was over 100 µM.

What follows are compounds tested on LOX IMVI melanoma (assay: NCI-60 cell line screen, 48 h).
CSC1=Nc2c(c(C)c(C)n2COC(CO)CO)C2=NC(=O)C(C)N12 (centres undefined) showed a GI50 of over 100 µM and a TGI of over 100 µM.
In the case of CCOC(=O)C1=CN(C)C=C(C(=O)OCC)C1c1cc(Br)c(OCC)c(OC)c1, the GI50 is reported as over 100 µM and the TGI is reported as over 100 µM.
N#Cc1c(N)nc(N2CCOCC2)c(C#N)c1-c1ccncc1 showed a GI50 of 80.1 µM and a TGI of over 100 µM.

The compounds below were run on EKVX NSCLC (assay: NCI-60 cell line screen, 48 h).
In the case of CSC1=Nc2c(c(C)c(C)n2COC(CO)CO)C2=NC(=O)C(C)N12 (centres undefined), the GI50 is reported as over 100 µM and the TGI is reported as over 100 µM.
With COc1cccc(CCNC(=O)Cc2ccccc2CCO)c1 the TGI was over 100 µM.
With N#Cc1c(N)nc(N2CCOCC2)c(C#N)c1-c1ccncc1 the GI50 was 66.7 µM and the TGI was over 100 µM.

Each compound was assayed on CAKI-1 renal (assay: NCI-60 cell line screen, 48 h).
Compound CSC1=Nc2c(c(C)c(C)n2COC(CO)CO)C2=NC(=O)C(C)N12 (centres undefined) has a GI50 of over 100 µM and a TGI of over 100 µM.
COc1cccc(CCNC(=O)Cc2ccccc2CCO)c1 was tested, and the TGI was over 100 µM.
For CCOC(=O)C1=CN(C)C=C(C(=O)OCC)C1c1cc(Br)c(OCC)c(OC)c1, the GI50 was 53 µM and the TGI was over 100 µM.
N#Cc1c(N)nc(N2CCOCC2)c(C#N)c1-c1ccncc1 showed a GI50 of 49.1 µM and a TGI of over 100 µM.

These compounds were tested on HT29 colon (assay: NCI-60 cell line screen, 48 h).
Compound CSC1=Nc2c(c(C)c(C)n2COC(CO)CO)C2=NC(=O)C(C)N12 (centres undefined) has a GI50 of over 100 µM and a TGI of over 100 µM.
For COc1cccc(CCNC(=O)Cc2ccccc2CCO)c1, the TGI was over 100 µM.
CCOC(=O)C1=CN(C)C=C(C(=O)OCC)C1c1cc(Br)c(OCC)c(OC)c1 was tested, and the GI50 was 34.5 µM and the TGI was over 100 µM.
N#Cc1c(N)nc(N2CCOCC2)c(C#N)c1-c1ccncc1 gave a GI50 of over 100 µM and a TGI of over 100 µM.

Each compound was assayed on A498 renal (assay: NCI-60 cell line screen, 48 h).
CSC1=Nc2c(c(C)c(C)n2COC(CO)CO)C2=NC(=O)C(C)N12 (centres undefined) gave a GI50 of over 100 µM and a TGI of over 100 µM.
COc1cccc(CCNC(=O)Cc2ccccc2CCO)c1 gave a TGI of over 100 µM.
With CCOC(=O)C1=CN(C)C=C(C(=O)OCC)C1c1cc(Br)c(OCC)c(OC)c1 the GI50 was 4.99 µM and the TGI was 94.9 µM.
Compound N#Cc1c(N)nc(N2CCOCC2)c(C#N)c1-c1ccncc1 has a GI50 of 18.6 µM and a TGI of 66.1 µM.

The compounds below were run on KM12 colon (assay: NCI-60 cell line screen, 48 h).
For CSC1=Nc2c(c(C)c(C)n2COC(CO)CO)C2=NC(=O)C(C)N12 (centres undefined), the GI50 was over 100 µM and the TGI was over 100 µM.
